From PubChem BioAssay AID248 (DTP/NCI, 2004)
Where “and” joins values, the source holds several entries; their conditions need not be identical. Equal values may be shown once. Inconclusive results and toxic doses are left out.

Tested on: L1210 leukemia ip in BDF1 mice, survival T/C
Experiment: NCI In Vivo Anticancer Drug Screen. Data for tumor model L1210 Leukemia (intraperitoneal) in B6D2F1 (BDF1) mice
Conditions: endpoint: mean survival time, higher = longer survival
How it was run: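 Value reflects the ratio of survival in compound-treated mice to survival in vehicle-treated controls, with both groups carrying the same transplanted tumor.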

[1] = dose: 100.0 mg/kg/injection, schedule: Q04DX003 (ip), vehicle: saline with Tween-80
[2] = dose: 200.0 mg/kg/injection, schedule: Q04DX003 (ip), vehicle: saline with Tween-80
[3] = dose: 400.0 mg/kg/injection, schedule: Q04DX003 (ip), vehicle: saline with Tween-80
[4] = dose: 100.0 mg/kg/injection, schedule: Q01DX001 (ip), vehicle: carboxymethylcellulose (CMC)
[5] = dose: 200.0 mg/kg/injection, schedule: Q01DX001 (ip), vehicle: carboxymethylcellulose (CMC)
[6] = dose: 400.0 mg/kg/injection, schedule: Q01DX001 (ip), vehicle: carboxymethylcellulose (CMC)
[7] = dose: 12.5 mg/kg/injection, schedule: Q04DX003 (ip), vehicle: Klucel (hydroxypropylcellulose) (HPC)
[8] = dose: 25.0 mg/kg/injection, schedule: Q04DX003 (ip), vehicle: Klucel (hydroxypropylcellulose) (HPC)
[9] = dose: 100.0 mg/kg/injection, schedule: Q04DX003 (ip), vehicle: Klucel (hydroxypropylcellulose) (HPC)
[10] = dose: 200.0 mg/kg/injection, schedule: Q04DX003 (ip), vehicle: Klucel (hydroxypropylcellulose) (HPC)
[11] = dose: 400.0 mg/kg/injection, schedule: Q04DX003 (ip), vehicle: Klucel (hydroxypropylcellulose) (HPC)
[12] = dose: 100.0 mg/kg/injection, schedule: Q01DX009 (ip), vehicle: Klucel (hydroxypropylcellulose) (HPC)
[13] = dose: 200.0 mg/kg/injection, schedule: Q01DX009 (ip), vehicle: Klucel (hydroxypropylcellulose) (HPC)
[14] = dose: 400.0 mg/kg/injection, schedule: Q01DX009 (ip), vehicle: Klucel (hydroxypropylcellulose) (HPC)
[15] = dose: 25.0 mg/kg/injection, schedule: Q01DX009 (ip), vehicle: Klucel (hydroxypropylcellulose) (HPC)
[16] = dose: 100.0 mg/kg/injection, schedule: Q04DX003 (ip), vehicle: saline

Question: Which T/C (dose: 1.0 mg/kg/injection, schedule: Q01DX001 (sc), vehicle: steriod suspending solution) does the source give for CC(=O)OC1CCC2(C)C(CCC3C2CCC2(C)C(c4ccc(=O)oc4)C(OC(C)=O)CC32O)C1 (stereo unspecified) here?
Answer: 96 % of control

Question: And the T/C (dose: 2.0 mg/kg/injection, schedule: Q01DX001 (sc), vehicle: steriod suspending solution)?
Answer: 98 % of control

Question: And the T/C (dose: 4.0 mg/kg/injection, schedule: Q01DX001 (sc), vehicle: steriod suspending solution)?
Answer: 93 % of control

Question: And the T/C (dose: 8.0 mg/kg/injection, schedule: Q01DX001 (sc), vehicle: steriod suspending solution)?
Answer: 109 % of control

Question: And the T/C (dose: 12.0 mg/kg/injection, schedule: Q01DX001 (sc), vehicle: steriod suspending solution)?
Answer: 98 % of control

Question: What about the T/C (dose: 16.0 mg/kg/injection, schedule: Q01DX001 (sc), vehicle: steriod suspending solution) of the same compound?
Answer: 101 % of control

Question: And the T/C (dose: 32.0 mg/kg/injection, schedule: Q01DX001 (sc), vehicle: steriod suspending solution)?
Answer: 108 % of control

Question: And the T/C (dose: 64.0 mg/kg/injection, schedule: Q01DX001 (sc), vehicle: steriod suspending solution)?
Answer: 103 % of control

Question: What about the T/C (dose: 128.0 mg/kg/injection, schedule: Q01DX001 (sc), vehicle: steriod suspending solution) of the same compound?
Answer: 111 % of control

Question: Which results are given for Nc1nc(SCc2ccccc2)c2ncnnc2n1?
Answer: T/C (dose: 100.0 mg/kg/injection, schedule: Q01DX001 (ip), vehicle: saline with Tween-80): 97 % of control; T/C (dose: 200.0 mg/kg/injection, schedule: Q01DX001 (ip), vehicle: saline with Tween-80): 103 % of control; T/C (dose: 400.0 mg/kg/injection, schedule: Q01DX001 (ip), vehicle: saline with Tween-80): 98 % of control

Question: How did the T/C [1] turn out when Nc1ccc(S(=O)(=O)Nc2ccc(C(=O)O)cc2)cc1 was run?
Answer: 98 % of control

Question: And the T/C [2]?
Answer: 98 % of control

Question: And the T/C [3]?
Answer: 98 % of control

Question: With CCCC(CC#N)(CCC)CCC as the compound, how does the T/C (dose: 37.5 mg/kg/injection, schedule: Q01DX Z (ip), vehicle: carboxymethylcellulose (CMC)) read?
Answer: 97 % of control

Question: What about the T/C (dose: 75.0 mg/kg/injection, schedule: Q01DX Z (ip), vehicle: carboxymethylcellulose (CMC)) of the same compound?
Answer: 101 % of control

Question: What about the T/C (dose: 100.0 mg/kg/injection, schedule: Q01DX Z (ip), vehicle: carboxymethylcellulose (CMC)) of the same compound?
Answer: 95 % of control

Question: And the T/C (dose: 200.0 mg/kg/injection, schedule: Q01DX Z (ip), vehicle: carboxymethylcellulose (CMC))?
Answer: 100 % of control

Question: Which T/C [4] does the source give for COc1ccc2c(c1)C1(C)CCCC(C)(C(N)=O)C1CC2 (stereo unspecified) here?
Answer: 101 % of control

Question: And the T/C [5]?
Answer: 93 % of control

Question: And the T/C [6]?
Answer: 98 % of control

Question: Which T/C (dose: 100.0 mg/kg/injection, schedule: Q04DX002 (ip), vehicle: Klucel (hydroxypropylcellulose) (HPC)) does the source give for CC(=O)OC(OC(C)=O)c1ccccc1 here?
Answer: 106 % of control

Question: What about the T/C (dose: 200.0 mg/kg/injection, schedule: Q04DX002 (ip), vehicle: Klucel (hydroxypropylcellulose) (HPC)) of the same compound?
Answer: 110 % of control

Question: And the T/C (dose: 400.0 mg/kg/injection, schedule: Q04DX002 (ip), vehicle: Klucel (hydroxypropylcellulose) (HPC))?
Answer: 103 % of control

Question: How did the T/C [7] turn out when CCOC(=O)C1(C(=O)OCC)CC(=O)c2c(OC)ccc(OC)c2C1 was run?
Answer: 94 % of control

Question: And the T/C [8]?
Answer: 105 % of control

Question: What about the T/C (dose: 50.0 mg/kg/injection, schedule: Q04DX003 (ip), vehicle: Klucel (hydroxypropylcellulose) (HPC)) of the same compound?
Answer: 98 % of control

Question: What about the T/C (dose: 100.0 mg/kg/injection, schedule: Q01DX001 (ip), vehicle: Klucel (hydroxypropylcellulose) (HPC)) of the same compound?
Answer: 98 % of control

Question: What about the T/C [9] of the same compound?
Answer: 95 % of control

Question: What about the T/C (dose: 200.0 mg/kg/injection, schedule: Q01DX001 (ip), vehicle: Klucel (hydroxypropylcellulose) (HPC)) of the same compound?
Answer: 98 % of control

Question: What about the T/C [10] of the same compound?
Answer: 103 % of control

Question: What about the T/C (dose: 400.0 mg/kg/injection, schedule: Q01DX001 (ip), vehicle: Klucel (hydroxypropylcellulose) (HPC)) of the same compound?
Answer: 106 % of control

Question: And the T/C [11]?
Answer: 111 % of control

Question: Which results are given for C(=N\C(/N=C/c1ccco1)c1ccco1)/c1ccco1?
Answer: T/C [12]: 94 % of control; T/C [9]: 96 % of control; T/C [13]: 105 % of control; T/C [10]: 98 % of control; T/C [14]: 97 % of control; T/C [11]: 100 % of control

Question: NC(=S)N/N=C/c1ccc(Cl)cc1 was tested. Which T/C [15] did it give?
Answer: 103 % of control

Question: And the T/C (dose: 50.0 mg/kg/injection, schedule: Q01DX009 (ip), vehicle: Klucel (hydroxypropylcellulose) (HPC))?
Answer: 101 % of control

Question: What does the source list for Clc1ccc(-c2cc(=[N+]3CC[N+](=c4cc(-c5ccc(Cl)cc5)ss4)CC3)ss2)cc1?
Answer: T/C (dose: 50.0 mg/kg/injection, schedule: Q01DX009 (ip), vehicle: water): 102 % of control; T/C (dose: 100.0 mg/kg/injection, schedule: Q01DX009 (ip), vehicle: water): 89 % of control; T/C (dose: 100.0 mg/kg/injection, schedule: Q04DX003 (ip), vehicle: water): 106 % of control; T/C (dose: 200.0 mg/kg/injection, schedule: Q01DX009 (ip), vehicle: water): 105 % of control; T/C (dose: 200.0 mg/kg/injection, schedule: Q04DX003 (ip), vehicle: water): 104 % of control; T/C (dose: 400.0 mg/kg/injection, schedule: Q04DX003 (ip), vehicle: water): 107 % of control

Question: Which T/C (dose: 50.0 mg/kg/injection, schedule: Q01DX001 (ip), vehicle: carboxymethylcellulose (CMC)) does the source give for CCOP(=O)(Nc1ccc2c(c1)Cc1cc(Br)ccc1-2)OCC here?
Answer: 105 % of control

Question: What about the T/C [4] of the same compound?
Answer: 92 % of control

Question: What about the T/C [5] of the same compound?
Answer: 105 % of control

Question: What about the T/C [6] of the same compound?
Answer: 108 % of control

Question: For O=NN(CCCl)C(=O)Nc1ccc(Br)cn1, which T/C (dose: 3.0 mg/kg/injection, schedule: Q01DX009 (ip), vehicle: carboxymethylcellulose (CMC)) is on record?
Answer: 97 % of control

Question: What about the T/C (dose: 6.0 mg/kg/injection, schedule: Q01DX009 (ip), vehicle: carboxymethylcellulose (CMC)) of the same compound?
Answer: 103 % of control

Question: And the T/C (dose: 10.0 mg/kg/injection, schedule: Q01DX009 (ip), vehicle: carboxymethylcellulose (CMC))?
Answer: 186 % of control

Question: And the T/C (dose: 12.0 mg/kg/injection, schedule: Q01DX009 (ip), vehicle: carboxymethylcellulose (CMC))?
Answer: 119 % of control

Question: What about the T/C (dose: 15.0 mg/kg/injection, schedule: Q01DX009 (ip), vehicle: carboxymethylcellulose (CMC)) of the same compound?
Answer: 154 % of control

Question: What about the T/C (dose: 22.5 mg/kg/injection, schedule: Q01DX009 (ip), vehicle: carboxymethylcellulose (CMC)) of the same compound?
Answer: 158 % of control

Question: What about the T/C (dose: 29.0 mg/kg/injection, schedule: Q01DX009 (ip), vehicle: carboxymethylcellulose (CMC)) of the same compound?
Answer: 157 % of control

Question: What about the T/C (dose: 66.0 mg/kg/injection, schedule: Q01DX001 (ip), vehicle: carboxymethylcellulose (CMC)) of the same compound?
Answer: 151 % of control

Question: And the T/C [4]?
Answer: 150 % of control and 173 % of control

Question: What about the T/C (dose: 150.0 mg/kg/injection, schedule: Q01DX001 (ip), vehicle: carboxymethylcellulose (CMC)) of the same compound?
Answer: 102 % of control and 109 % of control

Question: Which results are given for C1=NOC2c3ccc4ccccc4c3CCC12 (stereo unspecified)?
Answer: T/C [12]: 95 % of control; T/C [13]: 93 % of control; T/C [14]: 93 % of control

Question: For N#CCCNc1ccccc1, which T/C (dose: 100.0 mg/kg/injection, schedule: Q01DX009 (ip), vehicle: saline with Tween-80) is on record?
Answer: 95 % of control

Question: And the T/C [1]?
Answer: 103 % of control

Question: And the T/C (dose: 200.0 mg/kg/injection, schedule: Q01DX009 (ip), vehicle: saline with Tween-80)?
Answer: 106 % of control

Question: What about the T/C [2] of the same compound?
Answer: 108 % of control

Question: What about the T/C (dose: 400.0 mg/kg/injection, schedule: Q01DX009 (ip), vehicle: saline with Tween-80) of the same compound?
Answer: 86 % of control

Question: What about the T/C [3] of the same compound?
Answer: 105 % of control

Question: How did the T/C [16] turn out when CCOC(=O)C(=CNc1cnc(SC)[nH]c1=O)C(=O)OCC was run?
Answer: 91 % of control

Question: And the T/C (dose: 200.0 mg/kg/injection, schedule: Q04DX003 (ip), vehicle: saline)?
Answer: 93 % of control

Question: And the T/C (dose: 400.0 mg/kg/injection, schedule: Q04DX003 (ip), vehicle: saline)?
Answer: 89 % of control

Question: Which results are given for c1ccc(-c2oc(-c3ccccc3)c3ccccc23)cc1?
Answer: T/C (dose: 6.25 mg/kg/injection, schedule: Q01DX009 (ip), vehicle: Klucel (hydroxypropylcellulose) (HPC)): 101 % of control; T/C (dose: 6.25 mg/kg/injection, schedule: Q04DX003 (ip), vehicle: Klucel (hydroxypropylcellulose) (HPC)): 96 % of control; T/C (dose: 12.5 mg/kg/injection, schedule: Q01DX009 (ip), vehicle: Klucel (hydroxypropylcellulose) (HPC)): 102 % of control; T/C [7]: 93 % of control; T/C [15]: 96 % of control; T/C [8]: 96 % of control

Question: For COc1n[n+]([O-])c(Cl)c(/C=C\c2ccccc2)c1[N+](=O)[O-], which T/C (dose: 75.0 mg/kg/injection, schedule: Q04DX002 (ip), vehicle: Klucel (hydroxypropylcellulose) (HPC)) is on record?
Answer: 93 % of control

Question: What about the T/C (dose: 150.0 mg/kg/injection, schedule: Q04DX002 (ip), vehicle: Klucel (hydroxypropylcellulose) (HPC)) of the same compound?
Answer: 101 % of control

Question: What about the T/C (dose: 300.0 mg/kg/injection, schedule: Q04DX002 (ip), vehicle: Klucel (hydroxypropylcellulose) (HPC)) of the same compound?
Answer: 101 % of control

Question: For Nc1cccc(-c2csc(N)n2)c1, which T/C [4] is on record?
Answer: 100 % of control

Question: What about the T/C [5] of the same compound?
Answer: 100 % of control

Question: How did the T/C [16] turn out when Cc1ccc(-c2ccc3sc(C)[n+](C)c3c2)cc1 was run?
Answer: 92 % of control
